Source: article PMC11397035, “In Vitro and In Silico Analysis of PTP1B Inhibitors from Cleistocalyx operculatus Leaves and Their Effect on Glucose Uptake” (Nutrients, 2024)
Entries after “also recorded” stand apart in the source; their conditions may differ. Read-outs that look alike come from different tables or passages of the source.

Legend:
PTP1B [1] = target: T1, PTP1B (Homo sapiens, UniProt P18031); assay: In vitro PTP1B inhibition assay (p-NPP substrate); assay type: biochemical
T1 construct: purchased Enzo Life Sciences Inc
T1 sequence (P18031 1-435): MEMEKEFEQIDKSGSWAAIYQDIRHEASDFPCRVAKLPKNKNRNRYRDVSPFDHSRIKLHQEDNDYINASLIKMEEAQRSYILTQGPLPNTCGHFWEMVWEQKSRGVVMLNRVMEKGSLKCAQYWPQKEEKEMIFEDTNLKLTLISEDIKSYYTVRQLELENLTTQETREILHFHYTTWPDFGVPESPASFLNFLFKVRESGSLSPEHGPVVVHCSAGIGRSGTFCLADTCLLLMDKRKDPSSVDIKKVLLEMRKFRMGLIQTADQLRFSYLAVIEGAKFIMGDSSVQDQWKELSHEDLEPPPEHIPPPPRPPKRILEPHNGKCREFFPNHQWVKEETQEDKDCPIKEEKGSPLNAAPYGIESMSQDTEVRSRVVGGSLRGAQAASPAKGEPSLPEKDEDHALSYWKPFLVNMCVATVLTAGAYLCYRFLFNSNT
Description: PTP1B enzyme inhibition activity was assessed following a previously described protocol. […] It was followed by incubation at 37 °C for 30 min. After that, 10 μL of 10 M NaOH was added to quench the reaction. […] The non-enzymatic reaction of the substrate was considered and accounted for by comparing data to a control experiment without the PTP1B enzyme. IC50 values were calculated using non-linear regression in GraphPad Prism 10 (GraphPad Software, Inc., San Diego, CA, USA), based on triplicate experiments.

PTP1B [2] = target: T1, PTP1B; assay: Kinetic analysis with PTP1B (Lineweaver–Burk and Dixon plots); assay type: biochemical; details: for Ki: determined by Dixon plot interpretation; for Inhibition Type: determined by Lineweaver–Burk plots
Description: Reaction velocity was measured at different concentrations of tested compounds for kinetic analysis. The tested compounds or DMSO were preincubated with the enzyme and buffer solution at 37 °C for 2 min, followed by adding 50 μL of substrate (p-NPP) at different concentrations. The initial reaction velocities were monitored at 37 °C at 405 nm for 15 min. The kinetic reaction slopes were calculated based on the absorbance increments observed between 2 and 10 min (within the linear range). GraphPad Prism 10 (GraphPad Software, Inc., San Diego, CA, USA) was used to graph the double reciprocal Lineweaver–Burk and Dixon plots.

3T3-L1 adipocytes [3] = assay: Glucose uptake using the 2-NBDG probe in differentiated 3T3-L1 adipocytes; assay type: cell-based; details: 1 h; for glucose uptake (2-NBDG) stimulatory effect: 20 μM; for concentration-response of glucose uptake stimulation: 5, 10, and 20 μM
Description: 3T3-L1 fibroblasts were cultured in DMEM (HyClone, Logan, UT, USA) supplemented with 10% calf serum, 100 U/mL penicillin, and 100 μg/mL streptomycin from Gibco (Grand Island, NY, USA). The cells were incubated at 37 °C with 5% CO2. Cells were differentiated after treatment with DMEM enriched with 10% fetal bovine serum (FBS) (HyClone, Logan, UT, USA), 1 μM dexamethasone (Sigma, St. Louis, MO, USA), 520 μM 3-isobutyl-1-methylxanthine (Sigma, St. Louis, MO, USA), and 1 μg/mL insulin (Roche, Mannheim, Germany). After 48 h, the media were changed with fresh DMEM containing 10% FBS, 1 μg/mL insulin, 100 U/mL penicillin, and 100 μg/mL streptomycin. Every 48 ours, the media were replaced until the induction of adipogenesis. Intracellular lipid droplets appeared after 4 to 6 days of incubation.
In vitro experiments measured glucose uptake in 3T3-L1 adipocytes using 2-NBDG, a fluorescent glucose derivative (Invitrogen, Eugene, OR, USA). Cells were cultured on 96-well plates in a glucose-free medium supplemented with 10% FBS. After incubation, cells were treated with either insulin (as a positive control) or the test compounds in the presence or absence of 2-NBDG and were further incubated for an additional hour. Cells were washed with cold phosphate-buffered saline (PBS). The 2-NBDG fluorescence was quantified by measuring the signal intensity at excitation/emission wavelengths of 450/535 nm using a SpectraMax Gemini XPS fluorescence microplate reader (Molecular Devices, San Jose, CA, USA). For cellular transport studies involving 2-NBDG, 3T3-L1 adipocytes were grown on sterilized glass coverslips in a glucose-free medium containing 10% FBS for 24 h. After treatment with 2-NBDG, cells were washed with cold PBS. Fluorescent images were obtained with an Olympus IX 70 fluorescence microscope (Olympus Corporation, Tokyo, Japan) to quantify the cellular transport of 2-NBDG.

[4] = system: pre-diabetic male Sprague Dawley rats; parameters: method as in PMID 29596390; details: pre-diabetic male Sprague Dawley rats ref 44; cited from earlier work
3T3-L1 adipocytes [5] = system: 3T3-L1 adipocytes; parameters: method as in PMID 27765349; details: cited from earlier work
[6] = 50% PTP1B inhibitory effect, mean ± S.E.M. of triplicate experiments, six concentrations, read-out: IC50

Compound | IC50 (PTP1B [1]; [6]) [µM] | PTP1B inhibitory activity (in words) (PTP1B [1]) | glucose uptake (2-NBDG) stimulatory effect (3T3-L1 adipocytes [3]) | other results
C=C(C)C1CCC2(C(=O)OC)CCC3(C(=O)O)C(CCC4C5(C)CCC(O)C(C)(CO)C5CCC43C)C12 (centres unmarked) [Compound 2, Cleistocalyxic acid M] | > 20 | – | – | –
C=C(CO)C1CCC2(C(=O)OC)CCC3(C(=O)O)C(CCC4C5(C)CCC(O)C(C)(C)C5CCC43C)C12 (centres unmarked) [Compound 1, Cleistocalyxic acid L] | > 20 | – | – | –
C=C1[C@@H](O)[C@H](O)C[C@]2(C)[C@H]3[C@@H]4O[C@@H]4[C@]45OC(=O)[C@@]6(CC[C@@H](C)[C@H](C)[C@H]64)CC[C@@]5(C)[C@]3(C)CC[C@@H]12 [Compound 7, ulmoidol] | > 20 | reduced inhibitory effects | low glucose uptake stimulation | –
CC1(C)CC[C@]2(C(=O)O)CC[C@]3(C)C(=CC[C@@H]4[C@@]5(C)CC[C@H](O)C(C)(C)[C@@H]5CC[C@]43C)[C@@H]2C1 [Compound 12, oleanolic acid] | – | – | showed glucose uptake stimulatory effects | glucose homeostasis and progression of type 2 diabetes [4]: improve glucose homeostasis and prevent the progression of type 2 diabetes
C=C(C)[C@@H]1CC[C@]2(C(=O)OC)CC[C@]3(C(=O)O)C(CCC4[C@@]5(C)CC[C@H](O)C(C)(C)C5CC[C@]43C)C12 (some centres unmarked) [Compound 4, melaleucic acid 28-O-methyl ester] | 8.7 ± 0.6 | – | – | –
C=C(C)[C@@H]1CC[C@]2(C(=O)O)CC[C@]3(C)[C@H](CC[C@@H]4[C@@]5(C)C[C@@H](O)[C@H](O)C(C)(C)[C@@H]5CC[C@]43C)[C@@H]12 [Compound 6, alphitolic acid] | 4.1 ± 0.2 | strong PTP1B inhibitory activities | showed glucose uptake stimulatory effects; also recorded: particularly potent glucose uptake stimulatory effects | Ki (PTP1B [2]): 2.8 ± 0.4 µM; Inhibition Type (PTP1B [2]): non-competitive inhibitor of PTP1B; concentration-response of glucose uptake stimulation (3T3-L1 adipocytes [3]): dose dependent
C=C1C2CC[C@]3(C)C(CC=C4C5[C@](C(=O)O)(CC[C@@H](C)[C@@]5(C)O)CC[C@]43C)[C@@]2(C)C[C@@H](O)[C@@H]1O (stereo partly drawn) [Compound 10, 2α,3β,19α-trihydroxy-24-norurs-4(23),12-dien-28-oic acid] | 12.2 ± 0.3 | – | – | –
CC1(C)CC[C@]2(C(=O)O)CC[C@]3(C)C(=CCC4[C@@]5(C)C[C@@H](O)[C@H](OC(=O)/C=C\c6ccc(O)cc6)C(C)(C)C5CC[C@]43C)C2C1 (some centres unmarked) [Compound 17, 3-O-(Z)-p-coumaroyl maslinic acid] | 2.6 ± 0.3 | strong PTP1B inhibitory activities; also recorded: significant inhibitory activity | showed glucose uptake stimulatory effects; also recorded: particularly potent glucose uptake stimulatory effects | Ki (PTP1B [2]): 2.7 ± 0.4 µM; Inhibition Type (PTP1B [2]): non-competitive inhibitor of PTP1B; concentration-response of glucose uptake stimulation (3T3-L1 adipocytes [3]): dose dependent
CC1(C)CCC23CCC4(C)C5(C)CCC6C(C)(C)C(O)C(O)CC6(C)C5CC(O)C4(OC2=O)C3C1 (centres unmarked) [Compound 8, (2a, 3b, 12a)-trihydorxy-olean-28-oic acid 28,13-lactone] | > 20 | reduced inhibitory effects | low glucose uptake stimulation | –
CC1(C)CC[C@]2(C(=O)O)CC[C@]3(C)C(=CC[C@@H]4[C@@]5(C)C[C@@H](O)[C@H](O)C(C)(C)[C@@H]5CC[C@]43C)[C@@H]2C1 [Compound 13, maslinic acid] | – | significant inhibitory activity | showed glucose uptake stimulatory effects; also recorded: particularly potent glucose uptake stimulatory effects | IC50 (PTP1B [1]): 1.28 ± 0.1 µM; Ki (PTP1B [2]): 3.2 ± 0.6 µM; Inhibition Type (PTP1B [2]): non-competitive inhibitor of PTP1B; concentration-response of glucose uptake stimulation (3T3-L1 adipocytes [3]): dose dependent; glucose uptake (3T3-L1 adipocytes [5]): increased glucose uptake; intracellular Ca2+ concentration (3T3-L1 adipocytes [5]): raised intracellular Ca^2+ concentration; lipid droplet and triglyceride levels (3T3-L1 adipocytes [5]): reduced lipid droplet and triglyceride levels
C=C1[C@@H](O)[C@H](O)C[C@]2(C)[C@H]3CC=C4[C@@H]5[C@@H](C)[C@H](C)CC[C@]5(C(=O)O)CC[C@@]4(C)[C@]3(C)CC[C@@H]12 [Compound 11, ilekudinol B] | 14.1 ± 0.3 | – | – | –
C=C1CCC23CCC4(C)C5(C)CCC6C(=C)C(O)C(O)CC6(C)C5C5OC5C4(OC2=O)C3C1C (centres unmarked) [Compound 3, Cleistocalyxolide C] | > 20 | reduced inhibitory effects | low glucose uptake stimulation | –

The next lines start with results.

IC50 (PTP1B [1]; [6]) [µM] | PTP1B inhibitory activity (in words) (PTP1B [1]) | Compound | glucose uptake (2-NBDG) stimulatory effect (3T3-L1 adipocytes [3]) | other results
6.6 ± 0.6 | – | CC1(C)CC[C@]2(C(=O)O)CC[C@]3(C)C(=CC[C@@H]4[C@@]5(C)C[C@@H](O)[C@H](O)[C@@](C)(CO)[C@@H]5CC[C@]43C)[C@@H]2C1 [Compound 15, arjunolic acid] | – | –
4.4 ± 0.5 | strong PTP1B inhibitory activities | C[C@@H]1CC[C@]2(C(=O)O)CC[C@]3(C)C(=CCC4[C@@]5(C)C[C@@H](O)[C@H](O)[C@@](C)(CO)C5CC[C@]43C)C2[C@]1(C)O (some centres unmarked) [Compound 9] | – | Ki (PTP1B [2]): 7.6 ± 1.2 µM; Inhibition Type (PTP1B [2]): non-competitive inhibitor of PTP1B
3.6 ± 0.2 | – | CC1(C)CC[C@]2(CO)CC[C@]3(C)C(=CC[C@@H]4[C@@]5(C)CC[C@H](O)C(C)(C)[C@@H]5CC[C@]43C)[C@@H]2C1 [Compound 14, erythrodiol] | – | –
3.6 ± 0.4 | – | CC1(C)CC[C@]2(C(=O)O)CC[C@]3(C)C(=CCC4[C@@]5(C)C[C@@H](O)[C@H](OC(=O)/C=C/c6ccc(O)cc6)C(C)(C)C5CC[C@]43C)C2C1 (some centres unmarked) [Compound 16, 3-O-(E)-p-coumaroyl maslinic acid] | showed glucose uptake stimulatory effects | –
2.2 ± 0.1 | significant inhibitory activity | C=C(C)[C@@H]1CC[C@]2(C(=O)O)CC[C@]3(C)[C@H](CC[C@@H]4[C@@]5(C)CC[C@H](O)C(C)(C)[C@@H]5CC[C@]43C)[C@@H]12 [Compound 5, betulinic acid] | – | –
